{"source": "patent US7704990B2", "about": "“Agents for preventing and treating disorders involving modulation of the RyR receptors” (The Trustees of Columbia University in the City of New York, priority 2005, dated 2010)", "key": {"[1]": {"biological_target": "T1, RyR1 (Mus musculus, UniProt E9PZQ0)", "T1 construct": "single channel current trace of RyR1 from soleus muscle of control (wild-type) mouse; from tissue; host or cells: skeletal (soleus) muscle of mdx mice or of wild-type mice with heart failure", "T1 sequence (E9PZQ0 whole entry)": "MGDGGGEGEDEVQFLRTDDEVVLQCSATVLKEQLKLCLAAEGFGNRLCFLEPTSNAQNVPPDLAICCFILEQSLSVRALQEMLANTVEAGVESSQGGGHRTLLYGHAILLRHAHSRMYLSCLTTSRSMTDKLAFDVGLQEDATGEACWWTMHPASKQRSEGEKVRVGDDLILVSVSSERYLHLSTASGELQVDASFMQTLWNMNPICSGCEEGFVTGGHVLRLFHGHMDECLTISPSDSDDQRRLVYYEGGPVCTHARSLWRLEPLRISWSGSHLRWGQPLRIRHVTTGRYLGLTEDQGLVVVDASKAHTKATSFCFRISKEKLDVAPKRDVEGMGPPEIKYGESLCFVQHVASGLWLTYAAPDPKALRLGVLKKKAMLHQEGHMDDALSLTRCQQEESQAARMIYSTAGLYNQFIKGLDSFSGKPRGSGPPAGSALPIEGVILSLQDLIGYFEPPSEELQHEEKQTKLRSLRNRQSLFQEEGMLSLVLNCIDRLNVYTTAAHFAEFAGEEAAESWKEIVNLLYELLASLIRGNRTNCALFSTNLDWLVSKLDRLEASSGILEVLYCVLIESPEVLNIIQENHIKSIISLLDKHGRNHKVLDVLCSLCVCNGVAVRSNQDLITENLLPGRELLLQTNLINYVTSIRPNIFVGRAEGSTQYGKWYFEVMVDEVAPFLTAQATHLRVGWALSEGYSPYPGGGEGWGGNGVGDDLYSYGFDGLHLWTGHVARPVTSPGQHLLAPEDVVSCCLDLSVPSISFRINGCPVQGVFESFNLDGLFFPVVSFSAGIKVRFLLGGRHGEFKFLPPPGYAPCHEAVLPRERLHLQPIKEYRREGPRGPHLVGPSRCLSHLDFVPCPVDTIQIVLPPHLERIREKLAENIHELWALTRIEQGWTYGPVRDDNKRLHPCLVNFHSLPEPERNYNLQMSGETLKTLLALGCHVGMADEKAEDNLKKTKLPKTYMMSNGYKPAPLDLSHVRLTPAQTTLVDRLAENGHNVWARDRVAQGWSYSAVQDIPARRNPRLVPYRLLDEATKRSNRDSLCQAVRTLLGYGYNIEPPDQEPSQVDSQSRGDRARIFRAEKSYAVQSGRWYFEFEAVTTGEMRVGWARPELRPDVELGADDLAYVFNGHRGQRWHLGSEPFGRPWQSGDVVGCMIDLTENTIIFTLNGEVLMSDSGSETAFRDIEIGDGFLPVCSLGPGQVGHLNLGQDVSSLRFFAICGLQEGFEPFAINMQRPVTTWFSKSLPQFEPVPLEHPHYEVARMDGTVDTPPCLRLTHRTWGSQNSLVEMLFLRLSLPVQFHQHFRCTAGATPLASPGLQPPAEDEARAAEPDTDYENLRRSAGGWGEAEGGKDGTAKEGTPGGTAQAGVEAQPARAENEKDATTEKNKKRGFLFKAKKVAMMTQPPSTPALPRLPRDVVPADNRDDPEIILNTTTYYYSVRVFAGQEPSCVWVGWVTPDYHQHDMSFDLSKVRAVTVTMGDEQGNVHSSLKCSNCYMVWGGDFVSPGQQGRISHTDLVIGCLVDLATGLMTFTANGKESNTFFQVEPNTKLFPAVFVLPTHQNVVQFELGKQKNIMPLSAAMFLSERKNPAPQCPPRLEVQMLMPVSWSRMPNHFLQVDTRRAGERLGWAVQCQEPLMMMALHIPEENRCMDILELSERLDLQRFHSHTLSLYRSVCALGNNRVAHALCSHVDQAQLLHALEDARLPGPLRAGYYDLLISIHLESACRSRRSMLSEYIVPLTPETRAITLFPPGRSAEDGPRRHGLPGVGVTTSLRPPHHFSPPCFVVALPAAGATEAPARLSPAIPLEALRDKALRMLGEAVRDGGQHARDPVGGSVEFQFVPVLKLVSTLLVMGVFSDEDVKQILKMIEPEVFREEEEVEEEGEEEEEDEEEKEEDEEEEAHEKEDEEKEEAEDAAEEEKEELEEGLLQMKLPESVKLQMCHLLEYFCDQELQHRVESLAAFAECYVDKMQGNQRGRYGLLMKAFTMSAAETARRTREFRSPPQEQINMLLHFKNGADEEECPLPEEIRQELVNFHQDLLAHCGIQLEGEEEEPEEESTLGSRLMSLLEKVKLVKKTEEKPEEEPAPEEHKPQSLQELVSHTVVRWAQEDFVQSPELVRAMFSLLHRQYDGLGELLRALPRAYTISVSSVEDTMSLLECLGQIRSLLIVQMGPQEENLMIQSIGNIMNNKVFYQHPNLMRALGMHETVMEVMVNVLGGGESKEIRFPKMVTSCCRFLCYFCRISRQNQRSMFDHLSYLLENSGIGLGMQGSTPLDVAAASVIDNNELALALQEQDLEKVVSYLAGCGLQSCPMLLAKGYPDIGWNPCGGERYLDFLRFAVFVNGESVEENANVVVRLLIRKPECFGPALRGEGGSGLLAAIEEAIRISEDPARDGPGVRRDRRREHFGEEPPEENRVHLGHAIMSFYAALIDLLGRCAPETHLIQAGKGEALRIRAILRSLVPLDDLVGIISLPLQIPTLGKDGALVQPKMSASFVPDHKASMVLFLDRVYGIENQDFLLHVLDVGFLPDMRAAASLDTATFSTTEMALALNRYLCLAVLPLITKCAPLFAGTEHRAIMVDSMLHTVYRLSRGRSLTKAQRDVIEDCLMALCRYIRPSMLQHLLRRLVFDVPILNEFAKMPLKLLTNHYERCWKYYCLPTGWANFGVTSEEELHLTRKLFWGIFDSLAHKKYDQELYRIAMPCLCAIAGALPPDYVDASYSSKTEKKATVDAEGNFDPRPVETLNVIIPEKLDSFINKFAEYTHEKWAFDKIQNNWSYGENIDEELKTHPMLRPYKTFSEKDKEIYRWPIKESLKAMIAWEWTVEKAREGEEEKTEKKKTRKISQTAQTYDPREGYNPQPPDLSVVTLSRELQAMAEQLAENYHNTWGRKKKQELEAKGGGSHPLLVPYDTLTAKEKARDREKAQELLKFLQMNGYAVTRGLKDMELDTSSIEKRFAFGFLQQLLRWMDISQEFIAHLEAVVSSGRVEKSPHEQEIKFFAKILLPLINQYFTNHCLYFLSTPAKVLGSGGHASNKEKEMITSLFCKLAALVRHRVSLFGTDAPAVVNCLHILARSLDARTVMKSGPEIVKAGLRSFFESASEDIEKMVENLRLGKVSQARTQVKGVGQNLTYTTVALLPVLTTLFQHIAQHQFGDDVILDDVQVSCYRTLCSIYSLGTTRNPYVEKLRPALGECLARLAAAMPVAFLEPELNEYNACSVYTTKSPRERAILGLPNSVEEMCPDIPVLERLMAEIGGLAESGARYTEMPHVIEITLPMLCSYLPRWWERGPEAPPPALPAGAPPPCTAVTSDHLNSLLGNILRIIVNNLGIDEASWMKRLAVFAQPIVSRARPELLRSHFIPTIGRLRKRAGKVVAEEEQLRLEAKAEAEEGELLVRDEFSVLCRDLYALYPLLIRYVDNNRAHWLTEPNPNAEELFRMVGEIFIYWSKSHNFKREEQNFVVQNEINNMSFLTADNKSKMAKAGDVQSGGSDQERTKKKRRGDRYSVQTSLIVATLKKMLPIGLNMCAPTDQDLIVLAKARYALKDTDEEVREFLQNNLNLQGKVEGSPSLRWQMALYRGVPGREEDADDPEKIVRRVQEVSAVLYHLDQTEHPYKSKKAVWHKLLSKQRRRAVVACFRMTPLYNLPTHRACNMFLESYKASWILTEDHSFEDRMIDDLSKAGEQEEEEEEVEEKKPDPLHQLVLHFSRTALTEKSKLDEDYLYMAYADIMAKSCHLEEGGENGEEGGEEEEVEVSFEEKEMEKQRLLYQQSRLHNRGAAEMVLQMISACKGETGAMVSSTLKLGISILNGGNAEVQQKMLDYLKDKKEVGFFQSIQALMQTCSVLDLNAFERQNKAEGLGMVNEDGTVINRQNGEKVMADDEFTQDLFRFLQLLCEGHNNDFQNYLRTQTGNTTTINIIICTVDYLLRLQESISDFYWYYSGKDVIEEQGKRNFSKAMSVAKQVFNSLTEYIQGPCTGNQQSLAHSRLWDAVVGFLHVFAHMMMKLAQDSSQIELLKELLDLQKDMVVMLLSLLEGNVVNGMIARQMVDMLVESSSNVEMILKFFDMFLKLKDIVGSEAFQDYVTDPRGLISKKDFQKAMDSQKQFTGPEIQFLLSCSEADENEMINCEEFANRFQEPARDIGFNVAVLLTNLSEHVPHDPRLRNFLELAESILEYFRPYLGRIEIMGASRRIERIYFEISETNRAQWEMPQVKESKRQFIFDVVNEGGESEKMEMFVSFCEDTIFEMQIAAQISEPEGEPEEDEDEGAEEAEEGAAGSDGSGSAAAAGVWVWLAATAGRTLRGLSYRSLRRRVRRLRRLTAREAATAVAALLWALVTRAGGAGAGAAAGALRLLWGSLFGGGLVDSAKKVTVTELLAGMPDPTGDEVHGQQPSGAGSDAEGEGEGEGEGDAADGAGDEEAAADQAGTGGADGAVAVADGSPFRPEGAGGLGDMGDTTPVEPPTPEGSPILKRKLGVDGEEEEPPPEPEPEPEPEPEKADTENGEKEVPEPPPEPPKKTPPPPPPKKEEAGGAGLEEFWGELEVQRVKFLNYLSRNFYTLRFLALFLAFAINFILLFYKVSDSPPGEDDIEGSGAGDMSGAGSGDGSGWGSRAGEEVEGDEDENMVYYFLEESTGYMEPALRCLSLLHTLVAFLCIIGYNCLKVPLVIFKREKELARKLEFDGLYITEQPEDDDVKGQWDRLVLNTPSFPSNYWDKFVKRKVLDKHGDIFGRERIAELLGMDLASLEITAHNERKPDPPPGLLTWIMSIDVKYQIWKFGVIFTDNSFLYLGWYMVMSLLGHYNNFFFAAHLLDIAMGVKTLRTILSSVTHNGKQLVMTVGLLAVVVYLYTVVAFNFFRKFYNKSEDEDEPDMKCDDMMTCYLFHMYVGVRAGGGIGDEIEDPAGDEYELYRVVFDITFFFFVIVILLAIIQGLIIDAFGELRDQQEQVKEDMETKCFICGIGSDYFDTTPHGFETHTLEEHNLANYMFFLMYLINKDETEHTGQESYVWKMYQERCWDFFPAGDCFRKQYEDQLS", "T1 sequence (P26883 whole entry partner)": "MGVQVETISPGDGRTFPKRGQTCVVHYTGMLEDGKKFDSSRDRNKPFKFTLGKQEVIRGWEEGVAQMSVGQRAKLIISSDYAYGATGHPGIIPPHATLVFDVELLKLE", "experiment": "Single-channel recordings of RyR1 from soleus muscle of mdx mice", "type": "biochemical", "conditions": "1.0 μM JTV-519, cytoplasmic Ca2+ 150 nM, vs untreated wild-type", "source_text": "Embodiments A and B are, respectively, a single channel current trace and an amplitude histogram of RyR1 from soleus muscle of a control (wild-type) mouse under resting conditions. Embodiments C and D are, respectively, a single channel current trace and an amplitude histogram of RyR1 from soleus muscle of an mdx mouse.\nIn FIG. 11, channel openings are represented as upward deflections; ‘c’ indicates the closed state; and 4 pA current open amplitude is indicated by dash. Upper traces represent 5 secs and lower traces 500 ms; dotted lines indicate subconductance states.\nIncreased Po in mdx mice is consistent with intracellular Ca^2+ leak. The amplitude histograms in embodiments B, D, and F show multiple subconductance states consistent with calstabin1 (FKBP12) depletion in RyR1 from mdx soleus muscle."}, "[2]": {"tested_on": "soleus muscle", "experiment": "Soleus muscle fatigue time in mice with heart failure from myocardial infarction", "type": "in vivo, mouse", "source_text": "Soleus muscles from JTV519-treated wild-type mice or calstabin2^−/− mice with heart failure from myocardial infarction are more resistant to fatigue (P<0.05) compared to placebo-treated mice. After completion of treatment, soleus muscle was dissected and mounted in a tissue bath to assess isolated skeletal muscle function. Representative 50% of maximal tetanic force fatigue time tracings are shown for wild-type and calstabin2^−/− mice, treated with JTV519 or placebo, in embodiment A. In embodiment B are shown bar graph summarizing mean time to fatigue."}, "[3]": {"biological_target": "T2, RyR1 / calstabin1 (Mus musculus, UniProt E9PZQ0)", "T2 construct": "increase of calstabin1 in the RyR1 complex in soleus muscles in vivo; from tissue; host or cells: soleus muscle of wild-type and calstabin2-/- mice with post-infarction heart failure", "experiment": "RyR1 PKA phosphorylation and calstabin1 bound to RyR1 in soleus muscle of heart failure mice", "type": "in vivo", "procedure": "Embodiment A are bar graphs of PKA phosphorylation of RyR1 at Ser-2844 in mice, which corresponds to Ser-2843 in humans.\nEquivalent amounts of RyR1 were immunoprecipitated with an antibody against RyR1. Embodiment A are bar graphs show the amount of PKA phosphorylation of RyR1 at Ser-2844 in mice (corresponding to human Ser-2843). […] Embodiment B are bar graphs showing the amount of calstabin1 bound to RyR1 from wild-type or calstabin2^−/− mice treated with JTV519 or placebo. Mice were treated with JTV519 by implantable osmotic minipumps using a dose of 0.5 mg/kg/day."}, "[4]": {"biological_target": "T1, RyR1", "experiment": "RyR1 single-channel tracings from skeletal muscle of heart failure mice treated in vivo", "conditions": "mice with heart failure and increased muscle fatigue, 150 nM cytoplasmic Ca2+", "source_text": "Embodiments A and C are single channel current traces of wild-type mice with heart failure treated with placebo (A) and JTV-519 (C). Embodiments B and D are amplitude histograms for wild-type mice with heart failure treated with placebo (B) and JTV-519 (D).\nFor the amplitude histograms in embodiment B and D, amplitude is represented on the x axis, and events indicates the number of channel openings. Po, To and Tc values correspond to the representative traces. Treatment as indicated on top of traces."}, "[5]": {"biological_target": "PKA phosphorylated RyR1 / calstabin1 (Homo sapiens, UniProt P21817)", "experiment": "Calstabin1 binding to immunoprecipitated PKA phosphorylated skeletal RyR1 at increasing JTV519 concentrations", "source_text": "Sediment represents only calstabin bound to RyR."}, "[6]": {"tested_on": "FKBP12.6+/- mice"}}, "data": [{"smiles": "COc1ccc2c(c1)CN(C(=O)CCN1CCC(Cc3ccccc3)CC1)CCS2.Cl", "note": "[JTV-519, 4-[3-(4-benzylpiperidin-1-yl)propionyl]-7-methoxy-2,3,4,5-tetrahydro-1,4-benzothiazepine monohydrochloride]", "values": [{"measurement": "RyR1 channel activity", "setting": "[1]", "value": "normal activity"}, {"measurement": "soleus muscle fatigue times", "setting": "[2]; calstabin2-/- knockout mice with heart failure", "value": "significantly improved"}, {"measurement": "soleus muscle fatigue times", "setting": "[2]; wild-type mice with heart failure, vs placebo", "value": "improved soleus muscle fatigue times"}, {"measurement": "calstabin1 in the RyR1 complex in soleus muscle", "setting": "[3]; wild-type and calstabin2-/- mice, implantable osmotic minipumps, 0.5 mg/kg/day", "value": "highly significant increase"}, {"measurement": "RyR1 PKA phosphorylation at Ser-2844", "setting": "[3]; wild-type animals", "value": "significant decrease"}, {"measurement": "RyR1 channel gating in skeletal muscle", "setting": "[4]", "value": "normalized"}, {"measurement": "binding affinity of calstabin1 for PKA phosphorylated RyR1", "setting": "[5]; relative to non-PKA phosphorylated RyR1", "value": "restored"}, {"measurement": "concentration that increased the binding affinity of calstabin for RyR", "setting": "[5]; skeletal RyR1 with calstabin1, immunoblotting", "value": "≥ 50", "unit": "nM"}, {"measurement": "resting heart rate or other ECG parameters", "setting": "[6]; 0.5 mg/kg per hour for 7 days, implanted osmotic mini-pump", "value": "no effect"}, {"measurement": "plasma levels that prevent cardiac arrhythmias and sudden cardiac death", "setting": "[6]; FKBP12.6+/- mice, exercise testing and 0.5 mg/kg epinephrine", "value": 1, "unit": "µM"}, {"measurement": "exercise-induced ventricular arrhythmias", "setting": "[6]; haploinsufficient calstabin (FKBP12.6)+/- mice", "value": "prevention"}]}]}
